Read-outs that look alike come from different tables or passages of the source. One block for each molecule: values may come before it.
What was measured:
α1-receptors [1] = assay: α1-agonism in vitro, isolated anococcygeus muscle (rat); assay type: biochemical; conditions: negative logarithm of the molar concentration producing 50 percent of maximal contraction
Method: (§1) To obtain information also on the selectivity of the antagonist between α1 - and α2 -receptors, its ability to inhibit or stimulate α1 -receptors was determined by means of isolated anococcygeus muscle (rat). […] To determine α-antagonism, muscular contraction was induced by phenylephrine and the pA2 value of the studied compound was determined as above. α1 -agonist effect is presented as the pD2 value (negative logarithm of the molar concentration of the compound producing 50 percent of maximal contraction).

α2-receptors = target: T1, α2-receptors (Mus musculus, UniProt Q01338); assay: α2-antagonism in vitro, isolated electrically stimulated mouse vas deferens (vs detomidine); assay type: biochemical
T1 construct: isolated, electrically stimulated mouse vas deferens preparation; from tissue; host or cells: mouse vas deferens
T1 sequence (Q01338 1-465): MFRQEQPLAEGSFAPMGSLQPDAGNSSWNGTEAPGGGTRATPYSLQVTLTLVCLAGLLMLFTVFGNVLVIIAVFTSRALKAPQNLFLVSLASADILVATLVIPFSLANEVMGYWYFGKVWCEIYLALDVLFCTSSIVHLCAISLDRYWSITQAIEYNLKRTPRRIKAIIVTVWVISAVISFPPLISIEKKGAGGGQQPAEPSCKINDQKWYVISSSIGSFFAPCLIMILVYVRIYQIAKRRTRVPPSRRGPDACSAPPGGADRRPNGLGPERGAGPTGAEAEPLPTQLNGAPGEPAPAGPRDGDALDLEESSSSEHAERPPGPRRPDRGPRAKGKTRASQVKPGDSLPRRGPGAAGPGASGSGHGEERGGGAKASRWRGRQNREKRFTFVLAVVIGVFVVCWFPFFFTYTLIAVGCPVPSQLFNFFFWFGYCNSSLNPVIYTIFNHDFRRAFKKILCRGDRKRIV
Method: α2 -antagonism was determined by means of isolated, electrically stimulated mouse vas deferens preparation (Marshall et al., Br. J. Pharmac. 62, 147, 151, 1978). In this model, α2 -agonist (detomidine) blocks electrically stimulated muscular contractions and the effect of the α2 -antagonist is seen by administering it prior to the agonist and by determining its pA2 value. Known α2 -antagonists like yohimbine and rauwolscine were used as reference substances.

α2-receptor = assay: α2-antagonism in the central nervous system, inhibition of detomidine induced potentiation of barbiturate sleeping time in mice; assay type: in vivo, mouse; conditions: detomidine 150 μg/kg ip
Text: α2 -antagonism in the central nervous system was secondly studied by following the ability of the antagonist to inhibit detomidine induced sedation in the mouse. This was done by measuring the increase of barbiturate sleeping time induced by detomidine. This effect of detomidine is known to be induced through α2 -receptor activation. The antagonist can be studied by administering it prior to detomidine.

[2] = target: T2, α2-receptors of the central nervous system (Rattus norvegicus, UniProt P22909); assay: α2-antagonism in vivo, reversal of detomidine-induced mydriasis in anaesthetized rat; conditions: iv
T2 construct: In anaesthetized rat, a standard dose of detomidine was administered intravenously; from tissue; host or cells: whole anaesthetized rat, in vivo (central nervous system)
T2 sequence (P22909 1-465): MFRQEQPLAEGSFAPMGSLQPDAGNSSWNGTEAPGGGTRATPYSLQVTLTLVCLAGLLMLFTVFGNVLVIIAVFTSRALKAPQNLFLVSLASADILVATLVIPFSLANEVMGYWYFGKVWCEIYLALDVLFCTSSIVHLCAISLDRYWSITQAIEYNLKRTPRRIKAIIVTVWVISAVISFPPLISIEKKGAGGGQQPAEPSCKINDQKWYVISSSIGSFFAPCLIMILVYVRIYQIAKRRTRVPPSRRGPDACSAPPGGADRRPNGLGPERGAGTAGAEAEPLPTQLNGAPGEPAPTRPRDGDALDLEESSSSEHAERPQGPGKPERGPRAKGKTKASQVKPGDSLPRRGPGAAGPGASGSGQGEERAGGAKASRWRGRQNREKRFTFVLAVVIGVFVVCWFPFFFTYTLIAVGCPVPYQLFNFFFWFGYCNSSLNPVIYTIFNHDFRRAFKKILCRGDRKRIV
Method: The central α2 -blocking effect of the studied substances under in vivo conditions was studied using two methods. First, it is known that in the rat α2 -agonists induce dilatation of the pupil (mydriasis) which effect is transmitted via α2 -receptors of the central nervous system. In anaesthetized rat, a standard dose of detomidine was administered intravenously. Thereafter increasing doses of the studied antagonist were injected intravenously and the reversal of detomidine-induced mydriasis was followed. The ED50 value of the antagonist, i.e. the dose producing a 50 percent reversal, was determined.

α1-receptors [3] = assay: α1-antagonism in vitro, isolated anococcygeus muscle (rat), contraction induced by phenylephrine; assay type: biochemical
Method: as §1

[4] = antagonist given prior to detomidine, read-out: α2-antagonism (pA2 vs detomidine) mouse vas deferens (converted)

Structure (SMILES): c1ccc2c(c1)CC(c1cnc[nH]1)O2 (centres unmarked) [Compound II]
- α1-agonism (pD2) rat anococcygeus (α1-receptors [1]): 5.5
- Kb (α2-receptors): 31.6 nM
- Effect on detomidine induced potentiation of the barbiturate sleeping time (± percent of controls) (α2-receptor; dose 0.1 mg/kg): -5% of controls
- Effect on detomidine induced potentiation of the barbiturate sleeping time (± percent of controls) (α2-receptor; dose 0.3 mg/kg): -30% of controls
- Effect on detomidine induced potentiation of the barbiturate sleeping time (± percent of controls) (α2-receptor; dose 1 mg/kg): -60% of controls
- Effect on detomidine induced potentiation of the barbiturate sleeping time (± percent of controls) (α2-receptor; dose 3 mg/kg): -70% of controls
- Effect on detomidine induced potentiation of the barbiturate sleeping time (± percent of controls) (α2-receptor; dose 10 mg/kg): -85% of controls
- ED50, 50 percent reversal of detomidine-induced mydriasis ([2]; rat, in vivo): 0.07 mg/kg

Structure (SMILES): Brc1ccc2c(c1)CC(c1cnc[nH]1)O2 (centres unmarked) [Compound III]
- α1-agonism (pD2) rat anococcygeus (α1-receptors [1]): 4.5
- Kb (α2-receptors; [4]): 631 nM
- ED50, 50 percent reversal of detomidine-induced mydriasis ([2]; rat, in vivo): 0.32 mg/kg

Structure (SMILES): Cc1cccc2c1CC(c1cnc[nH]1)C2C (centres unmarked) [Compound VII]
- α1-agonism (pD2) rat anococcygeus (α1-receptors [1]): 6.0
- Kb (α2-receptors): 25.1 nM
- ED50, 50 percent reversal of detomidine-induced mydriasis ([2]; rat, in vivo): 0.1 mg/kg

Structure (SMILES): c1ccc2c(c1)CCC(c1cnc[nH]1)C2 (centres unmarked) [Compound XVIII]
- α1-agonism (pD2) rat anococcygeus (α1-receptors [1]): 6.0
- Kb (α2-receptors): 20 nM

Structure (SMILES): COc1cc2nc(N3CCN(C(=O)c4ccco4)CC3)nc(N)c2cc1OC [Prazosin]
- Effect on detomidine induced potentiation of the barbiturate sleeping time (± percent of controls) (α2-receptor; dose 0.1 mg/kg): 0% of controls
- Effect on detomidine induced potentiation of the barbiturate sleeping time (± percent of controls) (α2-receptor; dose 0.3 mg/kg): 0% of controls
- Effect on detomidine induced potentiation of the barbiturate sleeping time (± percent of controls) (α2-receptor; dose 1 mg/kg): 0% of controls
- Effect on detomidine induced potentiation of the barbiturate sleeping time (± percent of controls) (α2-receptor; dose 3 mg/kg): +16% of controls
- Effect on detomidine induced potentiation of the barbiturate sleeping time (± percent of controls) (α2-receptor; dose 10 mg/kg): +18% of controls

- Kb (α2-receptors; [4]): 251 nM
Structure (SMILES): CCC1(c2cnc[nH]2)Cc2ccc(C)cc2C1 (centres unmarked) [Compound XVII]

Structure (SMILES): COC(=O)[C@@H]1[C@H]2C[C@H]3c4[nH]c5ccccc5c4CCN3C[C@@H]2CC[C@@H]1O [Yohimbine]
- Kb (α2-receptors): 7.94 nM
- Effect on detomidine induced potentiation of the barbiturate sleeping time (± percent of controls) (α2-receptor; dose 0.1 mg/kg): 0% of controls
- Effect on detomidine induced potentiation of the barbiturate sleeping time (± percent of controls) (α2-receptor; dose 0.3 mg/kg): -18% of controls
- Effect on detomidine induced potentiation of the barbiturate sleeping time (± percent of controls) (α2-receptor; dose 1 mg/kg): -64% of controls
- Effect on detomidine induced potentiation of the barbiturate sleeping time (± percent of controls) (α2-receptor; dose 3 mg/kg): -70% of controls
- Effect on detomidine induced potentiation of the barbiturate sleeping time (± percent of controls) (α2-receptor; dose 10 mg/kg): -100% of controls
- ED50, 50 percent reversal of detomidine-induced mydriasis ([2]; rat, in vivo): 0.2 mg/kg
- α1-antagonism (pA2 vs phenylephrine) rat anococcygeus (α1-receptors [3]): 6.6

Structure (SMILES): COC(=O)[C@H]1[C@H]2C[C@H]3c4[nH]c5ccccc5c4CCN3C[C@H]2CC[C@@H]1O [Rauwolscine, reference compound]
- Kb (α2-receptors): 7.94 nM
- α1-antagonism (pA2 vs phenylephrine) rat anococcygeus (α1-receptors [3]): 6.3

Structure (SMILES): Cc1ccc2c(c1)C(C)C(c1cnc[nH]1)C2 (centres unmarked) [Compound VIII]
- Kb (α2-receptors): 25.1 nM
- ED50, 50 percent reversal of detomidine-induced mydriasis ([2]; rat, in vivo): 0.1 mg/kg
- α1-antagonism (pA2 vs phenylephrine) rat anococcygeus (α1-receptors [3]): 5.9

- α1-agonism (pD2) rat anococcygeus (α1-receptors [1]): 5.5
- Kb (α2-receptors; [4]): 7.94 nM
- ED50, 50 percent reversal of detomidine-induced mydriasis ([2]; rat, in vivo): 0.003 mg/kg
Structure (SMILES): CC1(c2cnc[nH]2)Cc2ccccc2C1 [Compound XII]

- ED50, 50 percent reversal of detomidine-induced mydriasis ([2]; anaesthetized rat, standard iv dose of detomidine): 1 mg/kg
Structure (SMILES): Cc1ccc(N(CC2=NCCN2)c2cccc(O)c2)cc1 [Phentolamine, reference compound]

Structure (SMILES): c1ccc2c(c1)CC(c1cnc[nH]1)C2 [Compound I]
- α1-agonism (pD2) rat anococcygeus (α1-receptors [1]): 6.5
- Kb (α2-receptors): 1.58 nM
- Effect on detomidine induced potentiation of the barbiturate sleeping time (± percent of controls) (α2-receptor; dose 0.1 mg/kg): -20% of controls
- Effect on detomidine induced potentiation of the barbiturate sleeping time (± percent of controls) (α2-receptor; dose 0.3 mg/kg): -60% of controls
- Effect on detomidine induced potentiation of the barbiturate sleeping time (± percent of controls) (α2-receptor; dose 1 mg/kg): -100% of controls
- ED50, 50 percent reversal of detomidine-induced mydriasis ([2]; rat, in vivo): 0.003 mg/kg

Structure (SMILES): Cc1ccc2c(c1)CC(c1cnc[nH]1)C2 (centres unmarked) [Compound IV]
- α1-agonism (pD2) rat anococcygeus (α1-receptors [1]): 6.5
- Kb (α2-receptors): 20 nM
- ED50, 50 percent reversal of detomidine-induced mydriasis ([2]; rat, in vivo): 0.02 mg/kg

- α1-agonism (pD2) rat anococcygeus (α1-receptors [1]): 6.5
Structure (SMILES): CNC[C@H](O)c1cccc(O)c1 [Phenylephrine, reference compound]

Structure (SMILES): CCC1(c2cnc[nH]2)Cc2ccccc2C1 [Compound XV]
- Kb (α2-receptors): 5.01 nM

Structure (SMILES): CC1c2ccccc2CC1c1cnc[nH]1 (centres unmarked) [Compound VI]
- α1-agonism (pD2) rat anococcygeus (α1-receptors [1]): 6.5
- Kb (α2-receptors): 2 nM
- ED50, 50 percent reversal of detomidine-induced mydriasis ([2]; rat, in vivo): 0.1 mg/kg

Source: patent publication US4689339A, “4-dihydroinden-2-yl-, 4-tetrahydronaphth-2-yl-, and 4-dihydrobenzofuran-2-ylimidazoles, useful to block α2 -adrenergic receptors” (Farmos Yhtyma oy, priority 1984, dated 1987)
